Assay results from US7906522B2, “2-aminoquinazoline derivatives” (Kyowa Hakko Kirin Co., Ltd, priority 2005, dated 2011).

How the values were obtained:
[1] = target: T1, Activated human p38α (Homo sapiens, UniProt Q16539); test: p38MAP kinase inhibition test; type: biochemical; conditions: at a concentration of 1 μmol/L; substrate myelin basic protein, ATP 20 μmol/L, [γ-32P]ATP; read-out: enzyme inhibitory activity
T1 construct: purchased Upstate Biotechnology Inc. 14-251
Summary of the method: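 Radiometric kinase assay with myelin basic protein (20 μg/assay) as substrate, 20 μmol/L ATP plus [γ-32P]ATP, MOPS pH 7.2 with MgCl2 18.75 mmol/L. Reaction run 15 min at 30° C., stopped with phosphoric acid; 32P-MBP captured on phosphocellulose and counted by scintillation.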

T1 sequence (Q16539 whole entry): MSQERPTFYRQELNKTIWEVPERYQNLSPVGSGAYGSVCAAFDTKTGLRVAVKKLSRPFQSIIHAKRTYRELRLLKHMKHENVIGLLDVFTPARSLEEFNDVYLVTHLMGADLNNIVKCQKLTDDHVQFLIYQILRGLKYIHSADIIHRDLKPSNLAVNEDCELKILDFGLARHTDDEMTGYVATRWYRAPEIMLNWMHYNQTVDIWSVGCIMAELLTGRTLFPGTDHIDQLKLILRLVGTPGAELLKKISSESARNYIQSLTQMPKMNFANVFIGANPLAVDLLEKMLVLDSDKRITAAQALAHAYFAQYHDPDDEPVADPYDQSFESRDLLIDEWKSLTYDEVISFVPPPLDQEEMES

SMILES | inhibition at 1 µM [1] [%] | melting point
CCc1cccc(C)c1Nc1ncc2cc(-c3ccccc3C)c(O)cc2n1 [Compound 180, 2-(2-Ethyl-6-methylanilino)-7-hydroxy-6-(2-methylphenyl)quinazoline] | ≥ 50 | 130 to 133 °C
CC[C@H](C)Nc1ncc2cc(-c3ccccc3C)c(O)cc2n1 [Compound 169, (S)-2-(sec-Butylamino)-7-hydroxy-6-(2-methylphenyl)quinazoline] | ≥ 50 | 165 °C
Cc1ccccc1-c1cc2cnc(Nc3ccccc3)nc2cc1O [Compound 178, 2-Anilino-7-hydroxy-6-(2-methylphenyl)quinazoline] | ≥ 50 | 234 to 236 °C
CC[C@H](C)Nc1ncc2cc(-c3ccccc3Cl)c(O)cc2n1 [Compound 163, (S)-2-(sec-Butylamino)-6-(2-chlorophenyl)-7-hydroxyquinazoline] | ≥ 50 | 173 to 175 °C
Cc1ccc(C(=O)NC2CC2)cc1-c1cc2cnc(Nc3c(Cl)cccc3Cl)nc2cc1O [Compound 319, 6-(5-Cyclopropylcarbamoyl-2-methylphenyl)-2-(2,6-dichloroanilino)-7-hydroxyquinazoline] | ≥ 50 | 190 to 193 °C
Cc1ccccc1-c1cc2cnc(Nc3c(C)cccc3C)nc2cc1O [Compound 175, 2-(2,6-Dimethylanilino)-7-hydroxy-6-(2-methylphenyl)quinazoline] | ≥ 50 | 220 to 222 °C
CS(=O)(=O)N1CCC(Nc2ncc3cc(-c4ccccc4Cl)c(O)cc3n2)CC1 [Compound 156, 6-(2-Chlorophenyl)-7-hydroxy-2-[1-(methylsulfonyl)piperidin-4-ylamino]quinazoline] | ≥ 50 | 268 to 271 °C
COc1c(NC(=O)c2ccc(C)c(-c3cc4cnc(NC(C)C)nc4cc3O)c2)cc(C(C)(C)C)cc1NS(C)(=O)=O [Compound 348, 6-{5-[(5-tert-Butyl-2-methoxy-3-methylsulfonylaminophenyl)carbamoyl]-2-methylphenyl}-7-hydroxy-2-(isopropylamino)quinazoline] | ≥ 50 | 251 to 253 °C
Cc1cc(C)c(Nc2ncc3cc(-c4ccccc4C)c(O)cc3n2)c(C)c1 [Compound 300, 7-Hydroxy-6-(2-methylphenyl)-2-(2,4,6-trimethylanilino)quinazoline] | ≥ 50 | 142 °C
CCC(CC)Nc1ncc2cc(-c3cc(C(=O)NC4CC4)ccc3C)c(O)cc2n1 [Compound 365, 6-(5-Cyclopropylcarbamoyl-2-methylphenyl)-2-(3-pentylamino)-7-hydroxyquinazoline] | ≥ 50 | 210 °C
Cc1ccccc1-c1cc2cnc(Nc3c(Cl)cccc3Cl)nc2cc1O [Compound 176, 2-(2,6-Dichloroanilino)-7-hydroxy-6-(2-methylphenyl)quinazoline] | ≥ 50 | 226 to 227 °C

Next, values leading:

inhibition at 1 µM [1] [%] | melting point | SMILES
≥ 50 | 153 °C | CC[C@H](C)Nc1ncc2cc(-c3cc(C(=O)NC4CC4)ccc3C)c(O)cc2n1 [Compound 361, (S)-2-(sec-Butylamino)-6-(5-cyclopropylcarbamoyl-2-methylphenyl)-7-hydroxyquinazoline]
≥ 50 | 248 to 249 °C | CC(C)Nc1ncc2cc(-c3cccc(NC(=O)c4ccnc(N5CCCC5)c4)c3)c(O)cc2n1 [Compound 336, 7-Hydroxy-2-isopropylamino-6-{3-[2-(pyrrolidin-1-yl)pyridin-4-ylcarbonylamino]phenyl}quinazoline]
≥ 50 | 251 to 253 °C | CC(C)Nc1ncc2cc(-c3cccc(C(=O)Nc4cccc(N5CCCC5)c4)c3)c(O)cc2n1 [Compound 330, 7-Hydroxy-2-isopropylamino-6-{3-[3-(pyrrolidin-1-yl)phenylcarbamoyl]phenyl}quinazoline]
≥ 50 | 250 °C (dec.) | CC(C)Nc1ncc2cc(-c3cccc(C(=O)NC4CC4)c3)c(O)cc2n1 [Compound 334, 6-[3-(Cyclopropylcarbamoyl)phenyl]-7-hydroxy-2-(isopropylamino)quinazoline]
≥ 50 | 150 °C | CC(C)Nc1ncc2cc(-c3cccc(NC(=O)c4cccc(N(C)C)c4)c3)c(O)cc2n1 [Compound 291, 6-{3-[(3-Dimethylaminophenyl)carbonylamino]phenyl}-7-hydroxy-2-(isopropylamino)quinazoline]
≥ 50 | 173 to 175 °C | Cc1ccc(-n2nc(C)cc2NC(=O)c2ccc(C)c(-c3cc4cnc(NC(C)C)nc4cc3O)c2)cc1 [Compound 357, 7-Hydroxy-2-isopropylamino-6-{2-methyl-5-[5-methyl-2-(4-methylphenyl)-2H-pyrazol-3-ylcarbamoyl]phenyl}quinazoline]
≥ 50 | 217 to 218 °C | Cc1ccc(C(=O)Nc2cccc(N(C)C)c2)cc1-c1cc2cnc(NC(C)C)nc2cc1O [Compound 324, 6-{5-[(3-Dimethylaminophenyl)carbamoyl]-2-methylphenyl}-7-hydroxy-2-(isopropylamino)quinazoline]
≥ 50 | 217 to 219 °C | CC(C)Nc1ncc2cc(-c3cccc(NC(=O)c4cc(F)cc(N5CCOCC5)c4)c3)c(O)cc2n1 [Compound 332, 6-[3-(3-Fluoro-5-morpholinobenzoylamino)phenyl]-7-hydroxy-2-(isopropylamino)quinazoline]
≥ 50 | 185 °C | Cc1cccc(C)c1Nc1ncc2cc(-c3cccc(NC(=O)c4ccnc(N5CCOCC5)c4)c3)c(O)cc2n1 [Compound 312, 2-(2,6-Dimethylanilino)-7-hydroxy-6-{3-[(2-morpholinopyridin-4-yl)carbonylamino]phenyl}quinazoline]
≥ 50 | 236 °C | CC(C)Nc1ncc2cc(-c3cccc(C(=O)Nc4cccc(N(C)C)c4)c3)c(O)cc2n1 [Compound 325, 6-{3-[(3-Dimethylaminophenyl)carbamoyl]phenyl}-7-hydroxy-2-(isopropylamino)quinazoline]
≥ 50 | 210 to 213 °C | Cc1ccc(C(=O)NC2CC2)cc1-c1cc2cnc(Nc3c(C)cccc3C)nc2cc1O [Compound 317, 6-(5-Cyclopropylcarbamoyl-2-methylphenyl)-2-(2,6-dimethylanilino)-7-hydroxyquinazoline]
≥ 50 | 255 to 257 °C | CC(C)Nc1ncc2cc(-c3cccc(C(=O)Nc4ccnc(N5CCOCC5)c4)c3)c(O)cc2n1 [Compound 342, 7-Hydroxy-2-isopropylamino-6-{3-[(2-morpholinopyridin-4-yl)carbamoyl]phenyl}quinazoline]
≥ 50 | 230 °C | CC(C)Nc1ncc2cc(-c3cccc(NC(=O)c4cccc(N5CCOCC5)c4)c3)c(O)cc2n1 [Compound 340, 7-Hydroxy-2-isopropylamino-6-[3-(3-morpholinobenzoylamino)phenyl]quinazoline]
